Results published in US20110237448A1, “CARBOHYDRATE BINDING MODULE WITH AFFINITY FOR INSOLUBLE XYLAN” (The Board of Trustees of the University of Illinois, priority 2009, published 2011).
Positions count from the first letter of the chain named. Entries after “also recorded” stand apart in the source; their conditions may differ.

Columns and labels:
[1] = target: T1, Fibrobacter succinogenes S85 FSUAxe6B variant D270A (Fibrobacter succinogenes, UniProt C9RS24, D270A); experiment: Steady state kinetic analysis, D270A mutant; format: biochemical; settings: tetra-acetyl-xylopyranoside as substrate, 37° C., 2 μM D270A protein
T1 sequence (C9RS24 30-552 D270A): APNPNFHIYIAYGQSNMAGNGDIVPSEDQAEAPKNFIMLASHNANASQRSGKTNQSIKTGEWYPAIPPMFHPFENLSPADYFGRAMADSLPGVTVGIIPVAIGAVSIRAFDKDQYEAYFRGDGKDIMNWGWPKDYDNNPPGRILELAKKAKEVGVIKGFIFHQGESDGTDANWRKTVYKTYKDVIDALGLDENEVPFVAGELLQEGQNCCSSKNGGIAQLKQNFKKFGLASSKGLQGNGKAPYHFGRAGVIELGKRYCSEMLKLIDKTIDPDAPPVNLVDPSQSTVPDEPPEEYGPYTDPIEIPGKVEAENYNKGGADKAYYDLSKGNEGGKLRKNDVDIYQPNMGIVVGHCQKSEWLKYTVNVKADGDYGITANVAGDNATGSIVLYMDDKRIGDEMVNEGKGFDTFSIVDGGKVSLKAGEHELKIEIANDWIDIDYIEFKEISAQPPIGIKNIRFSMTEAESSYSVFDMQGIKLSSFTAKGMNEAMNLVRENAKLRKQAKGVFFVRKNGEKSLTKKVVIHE
Method: (§1) Site-directed mutagenesis—Site-directed mutagenesis was carried out using the QuikChange Multi Site-Directed Mutagenesis Kit (Stratagene), according to the manufacturer's instructions.
(§2) Enzyme assays and steady state kinetics—Acetylxylan esterase activity was assayed using tetra-acetyl-xylopyranoside (Toronto Research Chemicals Inc., Ontario, Canada) for all proteins in this study, and the released of acetic acid was measured using an acetic acid detection kit (Megazyme, Bray, Ireland) following the manufacturer's instructions. The reduction of NADH was monitored continuously at an absorbance of 340 nm using Synergy 2 Microplate reader (BioTek, Winooski, Vt.) using the path-length correction feature. All assays were carried out at 37° C. […] The concentrations of the ingredients R1 and R2 solutions were pre-determined by the manufacturer (Megazyme). […] For active-site mutants with lower activity, the kinetic parameters were determined at a concentration of 10 μM for E194N protein and 2 μM for E194A, D270N, and D270A proteins, respectively. Initial rates were plotted against the tetra-acetyl-xylopyranoside concentrations, and the kinetic parameters were determined by Michaelis-Menten equation utilizing Graph Pad Prism v5.01.

[2] = target: T2, Fibrobacter succinogenes S85 FSUAxe6B truncational mutant TM2 (CE6) (Fibrobacter succinogenes, UniProt C9RS24); experiment: Steady state kinetic analysis, truncational mutant TM2; format: biochemical; settings: tetra-acetyl-xylopyranoside as substrate, 37° C., means ± standard errors
T2 construct: primers F1/R3, modified pET-28a, E. coli BL21(DE3), purified
T2 sequence (C9RS24 30-297): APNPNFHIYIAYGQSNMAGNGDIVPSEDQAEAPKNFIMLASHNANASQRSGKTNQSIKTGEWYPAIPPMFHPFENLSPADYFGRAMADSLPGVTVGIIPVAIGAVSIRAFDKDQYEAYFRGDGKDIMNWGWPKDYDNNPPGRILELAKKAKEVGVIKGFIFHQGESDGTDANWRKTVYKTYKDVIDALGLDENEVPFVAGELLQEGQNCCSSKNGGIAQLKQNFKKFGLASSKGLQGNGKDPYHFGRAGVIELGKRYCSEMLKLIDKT
Source text: (§3) To delineate and investigate the modules present in FSUAxe6B for functional role assignments, a gene truncation strategy was adopted. To create the truncated proteins, the glycines in loop regions were selected as the terminal amino acids of our constructs. The construct TM1 (CE6+CBM6) was designed to investigate the contribution of FPd-1 to the wild-type (WT) protein in terms of its catalytic (esterase) and carbohydrate binding activities. Likewise, TM2 (CE6) was constructed for identifying the role of the putative CBM6 on the two potential functions of the protein. […]
(§4) Assays were carried out at 37° C. […] The concentrations of the ingredients R1 and R2 solutions were pre-determined by the manufacturer (Megazyme). […] Initial rates were plotted against the tetra-acetyl-xylopyranoside concentrations, and the kinetic parameters were determined by Michaelis-Menten equation utilizing Graph Pad Prism v5.01.
(§5) Enzyme assays and steady state kinetics—Acetylxylan esterase activity was assayed using tetra-acetyl-xylopyranoside (Toronto Research Chemicals Inc., Ontario, Canada) for all proteins in this study, and the released of acetic acid was measured using an acetic acid detection kit (Megazyme, Bray, Ireland) following the manufacturer's instructions. […] The concentrations of the ingredients R1 and R2 solutions were pre-determined by the manufacturer (Megazyme). […]

[3] = target: T3, Fibrobacter succinogenes S85 FSUAxe6B truncational mutant TM1 (CE6+CBM6) (Fibrobacter succinogenes, UniProt C9RS24); experiment: Steady state kinetic analysis, truncational mutant TM1; format: biochemical; settings: tetra-acetyl-xylopyranoside as substrate, 37° C.
T3 construct: primers F1/R2, modified pET-28a, E. coli BL21(DE3), purified
T3 sequence (C9RS24 30-479 limits assumed): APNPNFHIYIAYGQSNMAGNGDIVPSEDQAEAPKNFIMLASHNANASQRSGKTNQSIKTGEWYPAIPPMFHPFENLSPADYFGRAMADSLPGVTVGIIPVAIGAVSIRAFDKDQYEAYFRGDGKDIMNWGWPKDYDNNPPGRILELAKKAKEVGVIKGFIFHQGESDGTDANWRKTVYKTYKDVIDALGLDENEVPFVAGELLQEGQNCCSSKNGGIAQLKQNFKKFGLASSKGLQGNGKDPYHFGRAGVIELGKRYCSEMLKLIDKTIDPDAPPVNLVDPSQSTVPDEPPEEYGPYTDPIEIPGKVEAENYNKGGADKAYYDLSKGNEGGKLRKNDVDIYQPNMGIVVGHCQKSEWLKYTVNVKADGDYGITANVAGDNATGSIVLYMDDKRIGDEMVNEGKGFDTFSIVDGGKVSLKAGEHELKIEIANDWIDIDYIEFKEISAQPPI
Source text: as §3, §4, §5

[4] = tested on: Fibrobacter succinogenes S85 acetylxylan esterase Axe6A; settings: from ref. 16; substrate not stated at the place; cited from earlier work
[5] = tested on: Fibrobacter succinogenes S85 acetylxylan esterase Axe6B; settings: comparison with Axe6A; substrate not stated at the place; cited from earlier work
[6] = target: T4, Fibrobacter succinogenes S85 FSUAxe6B variant E194N (Fibrobacter succinogenes, UniProt C9RS24, E194N); experiment: Steady state kinetic analysis, E194N mutant; format: biochemical; settings: tetra-acetyl-xylopyranoside as substrate, 37° C., 10 μM E194N protein
T4 sequence (C9RS24 30-552 E194N): T1 sequence (C9RS24 30-552 D270A) with E165N, A241D
Method: as §1, §2

[7] = target: T5, Fibrobacter succinogenes S85 FSUAxe6B variant E194A (Fibrobacter succinogenes, UniProt C9RS24, E194A); experiment: Steady state kinetic analysis, E194A mutant; format: biochemical; settings: tetra-acetyl-xylopyranoside as substrate, 37° C., 2 μM E194A protein
T5 sequence (C9RS24 30-552 E194A): T1 sequence (C9RS24 30-552 D270A) with E165A, A241D
Method: as §1, §2

[8] = target: T6, Fibrobacter succinogenes S85 acetylxylan esterase FSUAxe6B (Axe6B, FSU2267), wild-type (WT), SEQ ID NO: 31 (Fibrobacter succinogenes, UniProt C9RS24); experiment: Steady state kinetic analysis of acetylxylan esterase activity, FSUAxe6B wild-type (WT); format: biochemical; settings: tetra-acetyl-xylopyranoside as substrate, 37° C.
T6 sequence (C9RS24 30-552): T1 sequence (C9RS24 30-552 D270A) with A241D
Method: Assays were carried out at 37° C. Five microliters of 1 μM enzyme and 20 μl of R2 enzyme solution (containing acetate kinase, pyruvate kinase, and […] in 100 mM Tris-HCl, pH 7.4, 3 mM MgCl2) were thoroughly mixed. The tetra-acetyl-xylopyranoside was prepared in […] of R1 solution (NADH, ATP, phospho-enol-pyruvate, and pyruvate). The concentrations of the ingredients R1 and R2 solutions were pre-determined by the manufacturer (Megazyme). Both solutions were incubated separately at 37° C. for 3 min to allow equilibration, and then mixed to start the reaction. Initial rates were plotted against the tetra-acetyl-xylopyranoside concentrations, and the kinetic parameters were determined by Michaelis-Menten equation utilizing Graph Pad Prism v5.01.
Enzyme assays and steady state kinetics—Acetylxylan esterase activity was assayed using tetra-acetyl-xylopyranoside (Toronto Research Chemicals Inc., Ontario, Canada) for all proteins in this study, and the released of acetic acid was measured using an acetic acid detection kit (Megazyme, Bray, Ireland) following the manufacturer's instructions. The reduction of NADH was monitored continuously at an absorbance of 340 nm using Synergy 2 Microplate reader (BioTek, Winooski, Vt.) using the path-length correction feature. All assays were carried out at 37° C. […]

[9] = target: Fibrobacter succinogenes S85 FSUAxe6B truncational mutant TM5 (FPd-1 domain), SEQ ID NO: 2 (Fibrobacter succinogenes, UniProt C9RS24); experiment: Isothermal titration calorimetric (ITC) analysis of TM5 (FPd-1 domain); format: binding; settings: 25° C., 100 μM protein, 50 mM Na2HPO4—HCl buffer pH 7.0, 100 mM NaCl
Method: Isothermal titration calorimetric analysis was conducted to determine whether the FPd-1 domain can bind to soluble substrates. TM5 was tested for binding with arabinoxylan, xylobiose, and xylopentaose (FIG. 10). If there is binding affinity between two materials, a binding heat that follows a pattern such as that for CaCl2 vs. EDTA in the positive control will be observed.
For isothermal titration calorimetric (ITC) analysis, measurements were performed at 25° C. using a VP-ITC calorimeter (MicroCal, Inc, Northhampton, Mass.) following the manufacturer's recommended procedures. All samples were extensively dialyzed against 50 mM Na2HPO4—HCl buffer (pH 7.0), 100 mM NaCl, and all ligands were dissolved in the same buffer. The protein sample (100 μM) was injected with successive 10-μl aliquots of ligand at 300-s intervals.

CC(=O)O[C@@H]1OC[C@@H](OC(C)=O)[C@H](OC(C)=O)[C@H]1OC(C)=O [tetra-acetyl-xylopyranoside] gave a kcat [1] of 1.8 s⁻¹, a kcat/Km [1] of 9000 M⁻¹ s⁻¹ and a kcat [2] of 13 s⁻¹. For the same compound, the kcat/Km [3] was 170000 M⁻¹ s⁻¹, the Km [4] was 80 µM and the Km [5] was 60 µM. For the same compound, the kcat [6] was 2.8 s⁻¹, the kcat/Km [6] was 400 M⁻¹ s⁻¹ and the kcat [7] was 2.9 s⁻¹. For the same compound, the kcat/Km [7] was 14000 M⁻¹ s⁻¹, the kcat/Km [8] was 190000 M⁻¹ s⁻¹ and the kcat ([8]; means ± standard errors) was 15 s⁻¹.

In the case of OC1OC[C@@H](O[C@@H]2OC[C@@H](O)[C@H](O)[C@H]2O)[C@H](O)[C@H]1O (some centres unmarked) [xylobiose], the ITC binding [9] is reported as “no significant peaks were observed; also recorded: does not bind”.

In the case of OC1OC[C@@H](O[C@@H]2OC[C@@H](O[C@@H]3OC[C@@H](O[C@@H]4OC[C@@H](O[C@@H]5OC[C@@H](O)[C@H](O)[C@H]5O)[C@H](O)[C@H]4O)[C@H](O)[C@H]3O)[C@H](O)[C@H]2O)[C@H](O)[C@H]1O (some centres unmarked) [xylopentaose], the ITC binding [9] is reported as “no significant peaks were observed; also recorded: does not bind”.
